Read-outs that look alike come from different tables or passages of the source.
Assays:
[1] = molecular target: T1, Kv1.3 channel (Homo sapiens, UniProt P22001); conditions: read-out: Affinity (Kd), cited from earlier work
[2] = Swine stent model: pharmacokinetics (blood and arterial tissue levels); format: in vivo, pigs
Experimental: (§1) The total weight of the polymer with the drug is about 500 μg and the drug:polymer ratio is 30%. The stents are packed individually, coded with a bar code (to do a double blind experiment) and sterilized with ethylene oxide.
(§2) 36 stents (12 with the polymer alone, 12 with PAP and 12 with ShK) are implanted in 12 young pigs (25-35 kg) in the anterior descending or circumflex branches of the left coronary artery or in the right coronary artery (at a proportion of 3 stents per animal). The animals recover from the operation and are sent back to the animal house where they receive a normal diet supplemented with aspirin (325 mg/d). Blood samples of the animals are obtained at 6, 12, 24, 48 and 96 hours to determine the plasma levels of PAP and ShK. At 7 (n=4) or 28 days (n=8) the animals are euthanized after performing a coronary arteriography for the quantitative analysis. In one animal of each group (7 and 28 days), after euthanasia the coronary arteries are dissected, the stent is removed and the samples are frozen in liquid nitrogen in order to determine different markers by means of Western blot of the tissues and to determine the levels of PAP and ShK in the arterial wall. In the rest of the animals, immediately after euthanasia the hearts are collected and the coronary arteries are fixed by perfusion of formalin at 10% for 30 minutes.

[3] = test system: VSMCs of the human uterine artery; assay: Proliferation of VSMCs in culture (BrdU incorporation); format: cell-based; conditions: 10 nM; 24 hours; medium with 5% serum
Experimental: FIG. 8. Effect of the Kv1.3 channel blockers on the proliferation of the VSMCs of the human uterine artery. […] Again, these experiments were conducted in cells in control medium and cells in which the margatoxin or PAP was added to the medium.
For the proliferation studies, the fraction of cells incorporating 5-bromo-2′-deoxyuridine (BrdU) was determined. BrdU is a thymidine analog which can be incorporated in its place for the synthesis phase of the cell cycle. The cells incorporating BrdU can be detected by means of observation under a fluorescence microscope upon using a monoclonal antibody against this molecule and a secondary antibody conjugated with a fluorochrome. The assay was performed with a commercial kit (5-Bromo-2′-deoxy-uridine labeling and Detection Kit I; Roche Applied Science, Germany). The human uterine artery smooth muscle cells were grown for 48 hours in glass coverslips 12 mm in diameter in DMEM medium supplemented with serum and antibiotics as has been previously described, until reaching a confluence close to 50%. […] To quantify the results, the number of cells positive for BrdU with respect to the total number of cells in the field (which is determined by labeling the nuclei with the DAPI fluorescent dye) is counted in 10-20 fields in each experiment.

[4] = test system: Swine animal model of restenosis (coronary artery intima); assay: Swine animal model for the treatment of restenosis: morphometric analysis of stented coronary arteries; format: in vivo, pigs
Experimental: as §1, §2
A morphometric analysis is performed measuring the degree of endothelialization of the stent area, the content of VSMCs in the intima and its thickness in relation to the thickness of the vessel and the lumen area (see FIG. 9).

[5] = molecular target: T1, Kv1.3 channel; assay: Whole-cell patch-clamp in HEK cell transfected with the Kv1.3 channel; format: cell-based; conditions: 10 nM; potentials from +10 up to +80 mV; HEK cell transfected with Kv1.3
Source text: FIG. 3. Example of the assay for determining if a substance is a Kv1.3 channel blocker. […] The amplitude of the maximum current evoked by each voltage pulse is depicted in panel B depending on the value of the membrane potential, with which the current (I) voltage (V) curve is constructed for the three situations.
To evaluate if a substance is capable of dose-dependently reducing the flow of current through Kv1.3 (i.e., if it is a Kv1.3 blocker). The currents through the Kv1.3 channels expressed in the heterologous system were studied by means of the patch-clamp technique in the whole-cell configuration. The currents were recorded at room temperature (21-25° C.). The cells, placed in a recording chamber located in an inverted microscope, were perfused with a physiological saline solution (in mM: 141 NaCl, 4.7 KCl, 1.2 MgCl2, 1.8 CaCl2, 10 glucose and 10 HEPES (pH 7.4 with NaOH). The recording pipettes were made from borosilicate glass (2.0 mm OD, WPI) with a pipette puller (Narishige PP-83) so that they have resistances between 2 and 5 MΩ upon filling them with an internal solution containing (in mM) 125 KCl, 4 MgCl2, 10 HEPES, 10 EGTA, 5 MgATP; (pH 7.2 with KOH). The whole-cell currents were recorded with an Axopatch 200 amplifier or the like, filtering at 2 kHz and sampling at 10 kHz. […]

[6] = molecular target: T2, Kv1.3 channels (Mus musculus, UniProt P16390); assay: Whole-cell patch-clamp of Kv currents in contractile and cultured VSMCs of mouse femoral arteries; format: cell-based; conditions: 10 nM, pulse to +40 mV
T2 construct: endogenous in cells; host or cells: freshly dissociated and cultured VSMCs from femoral arteries of BPN mice
T2 sequence (P16390 whole entry): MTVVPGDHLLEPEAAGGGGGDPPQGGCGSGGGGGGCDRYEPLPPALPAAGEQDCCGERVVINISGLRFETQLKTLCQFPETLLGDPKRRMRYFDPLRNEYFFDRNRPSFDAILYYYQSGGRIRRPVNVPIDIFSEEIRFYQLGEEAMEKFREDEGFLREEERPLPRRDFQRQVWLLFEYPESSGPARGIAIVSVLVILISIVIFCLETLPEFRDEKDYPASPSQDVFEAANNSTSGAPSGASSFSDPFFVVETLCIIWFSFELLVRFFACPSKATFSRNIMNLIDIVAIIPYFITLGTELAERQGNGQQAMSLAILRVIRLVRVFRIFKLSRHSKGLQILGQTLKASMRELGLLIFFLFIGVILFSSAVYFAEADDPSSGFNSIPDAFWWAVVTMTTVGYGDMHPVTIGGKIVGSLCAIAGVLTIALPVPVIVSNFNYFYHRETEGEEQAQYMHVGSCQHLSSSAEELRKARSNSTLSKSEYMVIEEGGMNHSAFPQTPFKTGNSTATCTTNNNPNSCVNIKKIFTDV
Experimental: To isolate the VSMCs (model of cells in contractile phenotype), the animals were sacrificed by decapitation after anesthesia with isoflurane (5% at 2.5 I O2 min^−1).
To obtain the VSMCs in culture (in vitro model of proliferative phenotype), small fragments (0.5 mm) of femoral arteries free of endothelium and connective tissue were placed in 35 mm Petri culture dishes covered with 2% gelatin (Type B, Sigma) in a DMEM culture medium with 20% of fetal bovine serum, 100 U/ml penicillin, 100 U/ml streptomycin and 2 mM L-glutamine at 37° C. in a 5% CO2 atmosphere. The migration and proliferation of the VSMCs of these explants was clear at 6-10 days, but the explants were maintained until the single layer of VSMC was confluent. At this time, by means of mechanical scraping with a rubber spatula the cells were shed and seeded in a new culture dish at ⅓ of their original density. The VSMCs were thus subjected to several passes (3-4) without showing apparent morphological changes.
The drugs were prepared at the final concentrations indicated in the saline solution of the bath following the supplier's instructions and were applied to the cells for a period of 1-2 minutes. The currents were recorded before applying the drug (control) and in the presence of the drug, and the percentage of reduction in the amplitude of the currents induced by different blockers was calculated.

T1 sequence (P22001 whole entry): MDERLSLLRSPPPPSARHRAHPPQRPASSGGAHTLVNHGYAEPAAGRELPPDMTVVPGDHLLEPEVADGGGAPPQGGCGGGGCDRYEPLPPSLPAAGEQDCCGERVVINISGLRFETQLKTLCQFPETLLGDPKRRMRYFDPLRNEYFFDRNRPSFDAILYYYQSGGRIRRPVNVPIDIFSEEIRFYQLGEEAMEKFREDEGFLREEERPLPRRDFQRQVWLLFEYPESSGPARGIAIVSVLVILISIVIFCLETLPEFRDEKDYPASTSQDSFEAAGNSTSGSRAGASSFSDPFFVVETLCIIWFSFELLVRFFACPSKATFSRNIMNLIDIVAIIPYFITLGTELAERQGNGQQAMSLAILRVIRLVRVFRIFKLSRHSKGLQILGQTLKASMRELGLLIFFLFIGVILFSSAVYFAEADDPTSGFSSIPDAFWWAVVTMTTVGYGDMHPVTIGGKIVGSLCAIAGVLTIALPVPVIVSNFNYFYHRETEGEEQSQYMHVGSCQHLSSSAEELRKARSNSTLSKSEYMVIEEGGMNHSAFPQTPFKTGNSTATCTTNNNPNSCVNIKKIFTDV

Compound	Kd ([1]; Kv1.3 channel) [µM]	other results
COc1ccc(CCCN2CCC(COC(c3ccccc3)c3ccccc3)CC2)cc1 [UK78282]	0.2	–
c1ccc(C2(N3CCCCC3)CCCCC2)cc1 [Phencyclidine]	5	–
Buthus martensii Karsch toxin	0.00079	–
Parabuthus toxin 1	0.8	–
Dendrotoxin	0.25	–
[Co+2] [Co^2+]	200	–
COC(=O)C1=C(C)NC(C)=C(C(=O)OC)C1c1ccccc1[N+](=O)[O-] [Nifedipine]	5	–
C=C1C[C@@]2(O)[C@@H]3CC[C@@]4(C)[C@@H]5C=CC(=O)OC[C@]5(C(C)OC(C)=O)[C@@H](OC(C)=O)[C@@H](OC(C)=O)[C@@H]4[C@@]3(C)[C@H](OC(C)=O)[C@H](OC(C)=O)[C@@]2(C)C2(C(=O)OC)O[C@H]12 (stereo partly drawn) [Correolide]	–	Kd [1]: 0.09 µM
Stichodactyla helianthus toxin [Stichodactyla helianthus toxin (ShK)]	1.1e-05	–
Heterometrus spinifer toxin 1	1.2e-05	–
O=c1cc(-c2ccc(O)c(O)c2)oc2cc(O)cc(O)c12 [Luteolin]	50	–
[Hg+2] [Hg^2+]	10	–
Maurotoxin (VSCTGSKDCYAPCRKQTGCPNAKCINKSCKCYGC; UniProt P80719 1-34, looked up)	0.15	–
CC[C@H](C)[C@@H]1NC(=O)[C@@H](NC(=O)[C@H](CO)NC(=O)[C@@H](N)CCCNC(=N)N)CSSC[C@@H](C(=O)O)NC(=O)[C@H]([C@@H](C)O)NC(=O)CNC(=O)[C@@H]2CSSC[C@@H]3NC(=O)[C@H](CCC(N)=O)NC(=O)[C@H](Cc4ccccc4)NC(=O)[C@H](C)NC(=O)[C@H]([C@@H](C)O)NC(=O)[C@H](CSSC[C@H](NC(=O)[C@H](Cc4ccccc4)NC(=O)[C@H](CO)NC(=O)[C@H](CC(C)C)NC(=O)[C@H](CCCNC(=N)N)NC(=O)[C@H](Cc4ccc(O)cc4)NC(=O)[C@H](CCCCN)NC(=O)[C@H](CCSC)NC(=O)[C@H](CO)NC(=O)[C@H](Cc4cnc[nH]4)NC(=O)[C@H](CCCCN)NC3=O)C(=O)N[C@@H](CCCNC(=N)N)C(=O)N[C@@H](CCCCN)C(=O)N[C@@H]([C@@H](C)O)C(=O)N2)NC(=O)[C@H](CCCNC(=N)N)NC(=O)[C@H](CO)NC(=O)[C@H](CCCCN)NC(=O)[C@@H]2CCCN2C(=O)[C@H]([C@@H](C)CC)NC(=O)[C@H]([C@@H](C)O)NC(=O)[C@H](CC(=O)O)NC1=O [ShK]	–	level at 96 h ([2]; pig, in vivo, 200 ug per stent, at 4 days, below the limit of detection): < 0.2 ng/mL
Titystoxin-Kα	0.004	–
Hongotoxin	8.6e-05	–
CCOC(=O)C1=C(C)NC(C)=C(C(=O)OC)C1c1cccc([N+](=O)[O-])c1 (stereo not drawn) [Nitrendipine]	5	–
Pandinus imperator toxin 2	5e-05	–
Odonthobthus doriae toxin 2 [Odonthobthus doriae toxin 2 (OdK2)]	0.007	–
Pandinus imperator toxin 1	0.011	–
Stichodactyla helianthus toxin—fluorescein-6-carboxylic acid [ShK-F6CA]	4.8e-05	–
Charybdotoxin	0.003	–

Compound	Kd ([1]; Kv1.3 channel) [µM]	other results
Bunodosoma granulifera toxin	0.039	–
[Zn+2] [Zn^2+]	200	–
κ-Hefutoxin	40	–
CC(=O)[C@H]1CC[C@H]2[C@@H]3CCC4=CC(=O)CC[C@]4(C)[C@H]3CC[C@]12C [Progesterone]	30	–
CN1CCN(CCCN2c3ccccc3Sc3ccc(C(F)(F)F)cc32)CC1 [Trifluoperazine]	20	–
O=c1ccc2c(OCCCCOc3ccccc3)c3ccoc3cc2o1 [PAP-1]	–	fraction of cells labeled with BrdU (proliferation) [3]: a lower number of labeled nuclei is observed; blood levels, maximal ([2]; 6 hours after implanting the stent, stent with 200 μg drug): about 3 ng/ml; content in the arterial tissue ([2]; at 7 days): 97 ng/artery; content in the arterial tissue ([2]; at 28 days): 30 ng/artery; number of VSMCs in the intima ([4]; drug-coated stent versus control stent): significantly decreased; intimal area ([4]; drug-coated stent, 5.07 mm^2 in control): 2.23 mm^2; degree of stenosis ([4]; drug-coated stent, 45% in control): 27%; reduction of the current [5]: 80-85%
Margatoxin	0.00011	fraction of cells labeled with BrdU (proliferation) [3]: a lower number of labeled nuclei is observed; current blocked, of the Kv current ([6]; VSMCs in culture): 58.15±4.54; current blocked, of the Kv current ([6]; contractile VSMCs): 10.6±2.03
trans-N-propyl-carbamoyloxy-PAC	0.05	–
CCC[C@@H](O)/C=C/C=C/C=C/C#CC#CCCCO [Cicutotoxin]	18	–
CCCCC/N=c1\ccn(Cc2ccccc2)c2ccccc12 [CP339818]	–	Kd [1]: 0.15 µM
O=C(NCC1CCCCN1)c1cc(OCC(F)(F)F)ccc1OCC(F)(F)F (stereo not drawn) [Flecainide]	60	–
Kaliotoxin	0.00065	–
[La+3] [La^3+]	20	–
C=C(C)[C@]12C[C@@H](C)[C@@]34O[C@](Cc5ccccc5)(O[C@@H]1[C@@H]3C=C(COC(=O)Cc1ccc(O)c(OC)c1)C[C@]1(O)C(=O)C(C)=C[C@@H]41)O2 [Resiniferatoxin]	3	–
Agiotoxin-2	0.0002	–
CC[N+](CC)(CC)CC [TEA, tetraethylammonium chloride]	10000	–
COc1cc(CNC(=O)CCCC/C=C/C(C)C)ccc1O [Capsaicin]	26	–
COc1ccc([C@@H]2Sc3ccccc3N(CCN(C)C)C(=O)[C@@H]2OC(C)=O)cc1 [Diltiazem]	27	–
Parabuthus toxin 3	0.492	–
Noxiustoxin (TIINVKCTSPKQCSKPCKELYGSSAGAKCMNGKCKCYNN; UniProt P08815 1-39, looked up)	0.001	–
Pandinus imperator toxin 3	0.0005	–
C=C[C@H]1C[N@@]2CC[C@H]1C[C@H]2[C@H](O)c1ccnc2ccc(OC)cc12 [Quinine]	14	–

From patent publication US8629110B2, “Kv1.3 channel blocking substances for the treatment of diseases associated with intimal hyperplasia” (priority 2008, dated 2014)
